From publication PMC2654417 (Combinatorial chemistry & high throughput screening, 2008)
Read-outs that look alike come from different tables or passages of the source.

Target: T1, glucocorticoid receptor (GR) (Homo sapiens, UniProt P04150)
T1 sequence (P04150 1-777): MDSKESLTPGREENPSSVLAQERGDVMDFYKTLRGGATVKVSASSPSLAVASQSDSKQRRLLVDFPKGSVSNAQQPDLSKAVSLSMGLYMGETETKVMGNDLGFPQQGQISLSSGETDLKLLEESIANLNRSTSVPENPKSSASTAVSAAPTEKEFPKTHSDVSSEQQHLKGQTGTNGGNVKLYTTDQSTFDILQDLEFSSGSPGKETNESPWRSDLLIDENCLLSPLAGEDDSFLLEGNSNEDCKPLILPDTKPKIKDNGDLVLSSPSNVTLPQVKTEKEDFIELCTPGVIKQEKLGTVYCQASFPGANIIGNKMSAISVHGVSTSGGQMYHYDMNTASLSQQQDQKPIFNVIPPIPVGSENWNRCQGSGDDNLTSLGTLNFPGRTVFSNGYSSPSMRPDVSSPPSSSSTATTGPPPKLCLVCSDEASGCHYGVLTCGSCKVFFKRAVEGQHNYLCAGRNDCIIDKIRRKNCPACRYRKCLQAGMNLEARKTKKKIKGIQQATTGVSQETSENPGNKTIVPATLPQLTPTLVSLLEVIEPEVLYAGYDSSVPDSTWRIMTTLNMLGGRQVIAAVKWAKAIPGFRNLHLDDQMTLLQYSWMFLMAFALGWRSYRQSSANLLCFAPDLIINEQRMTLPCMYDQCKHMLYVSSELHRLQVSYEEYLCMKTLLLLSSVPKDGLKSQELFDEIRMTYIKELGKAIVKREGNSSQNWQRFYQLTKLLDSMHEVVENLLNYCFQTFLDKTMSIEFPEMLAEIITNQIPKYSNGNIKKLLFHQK
Experiment: GR-EFC nuclear translocation assay
Assay type: cell-based
Settings: for EC50: read-out: qEC50; for qHTS Hill Slope: Hill slope of the qHTS curve fit; for qHTS Max Activity: maximal activity of the qHTS curve, inactive threshold […] (3σ); for log qEC50: log10 of qEC50 in M, printed as negative values

[1] = qHTS curve fit, class 4 values are fit defaults
[2] = class 4 values are fit defaults

EC50 [1] [µM]	Structure (SMILES)	qHTS Curve Class	also measured
> 9	CC[C@H](CC[C@H](C)[C@@H]1CC[C@@H]2[C@H]3CC=C4C[C@@H](O)CC[C@]4(C)[C@H]3CC[C@]21C)C(C)C [NCGC00016331-01]	–	–
> 9	C[C@@H]1[C@H]2CC[C@@H]3[C@@H]4CC=C5C[C@@H](N(C)C)CC[C@]5(C)[C@@H]4CC[C@@]32CN1C [NCGC00016502-01]	–	–
0.035	CC(=O)OCC(=O)[C@@]1(O)CC[C@H]2[C@@H]3CCC4=CC(=O)C=C[C@]4(C)[C@@]3(F)[C@@H](O)C[C@@]21C [NCGC00016433-01]	–	qHTS Hill Slope: 0.52; log qEC50 [2]: −7.456; qHTS Max Activity: 80.8
> 9	COc1cc2c(cc1O)CCC1C2CC[C@@]2(C)C1CC[C@@H]2O (some centres unmarked) [NCGC00025300-01]	–	–
0.0827	C[C@]12C=CC(=O)C=C1CC[C@@H]1[C@H]3C[C@@H](O)[C@](O)(C(=O)CO)[C@@]3(C)C[C@H](O)[C@]12F [NCGC00016376-01]	–	qHTS Hill Slope: 1.15; log qEC50 [2]: −7.082; qHTS Max Activity: 67.5
0.0128	CC(=O)OCC(=O)[C@@]12OC(C)(C)O[C@@H]1C[C@H]1[C@@H]3C[C@H](F)C4=CC(=O)C=C[C@]4(C)[C@@]3(F)[C@@H](O)C[C@@]12C [NCGC00016436-01]	–	log qEC50 [2]: −7.893; qHTS Max Activity: 47.0
> 9	C[C@]12CC[C@H]3c4ccc(OC[C@H]5CO5)cc4CC[C@H]3[C@H]1CC[C@@H]2O [NCGC00017797-01]	–	–
0.00311	CCC(=O)[C@@]1(C)[C@H](C)C[C@H]2[C@@H]3CCC4=CC(=O)C=C[C@]4(C)[C@H]3[C@@H](O)C[C@@]21C [NCGC00016856-01]	–	qHTS Hill Slope: 0.52; log qEC50 [2]: −8.507; qHTS Max Activity: 77.5
> 9	C[C@H](CCC(=O)NCC(=O)O)[C@H]1CC[C@H]2[C@H]3[C@@H](C[C@@H](O)[C@]12C)[C@]1(C)CC[C@H](O)C[C@@H]1C[C@@H]3O [NCGC00016452-01]	–	–

Further lines, the molecule ahead of its results:

Structure (SMILES)	EC50 [1] [µM]	qHTS Curve Class	also measured
C#C[C@@]1(OC(C)=O)CC[C@@H]2[C@@H]3CCC4=C[C@@H](OC(C)=O)CC[C@H]4[C@H]3CC[C@]21C [NCGC00016417-01]	–	4 (inactive, where activity was below 28.6% (3σ for the present assay))	EC50: > 9 µM
C#C[C@@]1(O)CC[C@@H]2[C@@H]3CCC4=CC(=O)CC[C@@H]4[C@H]3CC[C@]21C [NCGC00016303-01]	–	4 (inactive, where activity was below 28.6% (3σ for the present assay))	–
C[C@H]1[C@H](C)CC[C@@]2(C(=O)O)CC[C@]3(C)C(=CC[C@H]4[C@@]5(C)C[C@@H](O)[C@H](O)[C@@](C)(CO)[C@@H]5CC[C@@]43C)[C@@H]12 [NCGC00017359-01]	–	4 (inactive, where activity was below 28.6% (3σ for the present assay))	EC50: > 9 µM
CC[C@@H]1Cc2cc(O)ccc2C2=C1c1ccc(O)cc1C[C@H]2CC [NCGC00015377-01]	–	4 (inactive, where activity was below 28.6% (3σ for the present assay))	EC50: > 9 µM
C[C@@]12CCC(=O)C=C1CC[C@@H]1[C@@H]2[C@H](O)C[C@]2(C)[C@@H]1CC[C@]2(O)C(=O)CO [NCGC00015507-01]	–	–	qHTS Hill Slope: 0.55; qHTS Max Activity: 123.7
C[C@]12C[C@H]3S[C@H]3C[C@@H]1CC[C@@H]1[C@@H]2CC[C@]2(C)[C@@H](O)CC[C@@H]12 [NCGC00016609-01]	–	4 (inactive, where activity was below 28.6% (3σ for the present assay))	EC50: > 9 µM
C[C@@]12CC[C@H]3[C@@H](CC=C4C[C@H](OS(=O)(=O)O)CC[C@]43C)[C@H]1CCC2=O [NCGC00016143-01]	> 9	–	–
C#C[C@@]1(O)CC[C@H]2[C@H]3CCC4=Cc5oncc5C[C@]4(C)[C@@H]3CC[C@@]21C [NCGC00015375-01]	–	4 (inactive, where activity was below 28.6% (3σ for the present assay))	EC50: > 9 µM
C[C@H](CCC(=O)O)[C@H]1CC[C@H]2[C@@H]3[C@H](O)C[C@@H]4C[C@H](O)CC[C@]4(C)[C@H]3C[C@H](O)[C@]12C [NCGC00013426-01]	> 9	–	–
C#C[C@]1(O)CC[C@@H]2[C@H]3CCc4cc(OC)ccc4[C@@H]3CC[C@@]21C [NCGC00016310-01]	> 9	–	–
C[C@@]12CC[C@H]3[C@@H](CC[C@]4(O)C[C@H](O)CC[C@@]34C=O)[C@]1(O)CC[C@@H]2C1=CC(=O)OC1 [NCGC00016295-01]	> 9	–	–
C[C@@H]1O[C@H](O[C@@H]2CC[C@@]3(C=O)[C@H]4CC[C@@]5(C)[C@@H](C6=CC(=O)OC6)CC[C@@]5(O)[C@@H]4CC[C@]3(O)C2)C[C@H](O)[C@@H]1O [NCGC00016524-01]	> 9	–	–
CC1(C)[C@@H](O)CC[C@@]2(C)[C@H]1CC[C@]1(C)[C@H]2C(=O)C=C2[C@@H]3C[C@@](C)(C(=O)O)CC[C@]3(C)CC[C@@]21C [NCGC00017244-01]	–	4 (inactive, where activity was below 28.6% (3σ for the present assay))	EC50: > 9 µM
CC(=O)O[C@H]1C[C@@]2(C)[C@@H](C[C@@H](O)[C@H]3[C@@]4(C)CC[C@@H](O)[C@@H](C)[C@@H]4CC[C@@]32C)/C1=C(\CCC=C(C)C)C(=O)[O-].[Na+] [NCGC00017030-01]	–	4 (inactive, where activity was below 28.6% (3σ for the present assay))	EC50: > 9 µM
C[C@H]1CC[C@]2(NC1)O[C@@H]1C[C@@H]3[C@@H]4CC=C5C[C@H](O)CC[C@@]5(C)[C@H]4CC[C@@]3(C)[C@H]1[C@@H]2C [NCGC00017170-01]	> 9	–	–
C[C@@]12CCC(=O)C=C1CC[C@@H]1[C@@H]2[C@H](O)C[C@]2(C)[C@@H]1CC[C@]2(O)C(=O)COC(=O)CCC(=O)[O-].[Na+] [NCGC00016153-01]	1.12	–	qHTS Hill Slope: 0.62; log qEC50 [2]: −5.952; qHTS Max Activity: 100.0

Structure (SMILES)	EC50 [1] [µM]	qHTS Curve Class	also measured
C[C@@]12CC[C@H](O)C[C@@H]1CC[C@H]1[C@H]2C[C@@H](O)[C@]2(C)[C@@H](C3=CC(=O)OC3)CC[C@@]12O [NCGC00017309-01]	> 9	–	–
CCC(=O)O[C@]1(C(=O)SCF)[C@H](C)C[C@H]2[C@@H]3C[C@H](F)C4=CC(=O)C=C[C@]4(C)[C@@]3(F)[C@@H](O)C[C@@]21C [NCGC00016943-01]	–	–	qHTS Hill Slope: 1.50; qHTS Max Activity: 115.3
CC(=O)O[C@H]1CC[C@@]2(C)C(=CC[C@@H]3[C@@H]2CC[C@]2(C)C(=O)CC[C@@H]32)C1 [NCGC00016544-01]	> 9	–	–
C[C@@]12C[C@@H](O)[C@H]3[C@@H](CCC4=CC(=O)CC[C@]43C)[C@H]1CC[C@H]2C(=O)CO [NCGC00015222-01]	0.179	–	qHTS Hill Slope: 0.77; log qEC50 [2]: −6.747; qHTS Max Activity: 64.0
COc1cc2c(cc1OC)-c1c(OC)c(OC)c(CO)c3c1[C@H](C2)N(C)CC3 [NCGC00017307-01]	–	4 (inactive, where activity was below 28.6% (3σ for the present assay))	EC50: > 9 µM
CC(=O)[C@@H]1CC[C@@H]2[C@@H]3CC=C4C[C@H](OS(=O)(=O)O)CC[C@@]4(C)[C@H]3CC[C@]21C [NCGC00016184-01]	> 9	–	–
C[C@@H]1C[C@@H]2[C@H]3CCC4=CC(=O)C=C[C@]4(C)[C@]3(Cl)[C@@H](O)C[C@@]2(C)[C@@]1(O)C(=O)CO [NCGC00015136-01]	–	–	qHTS Hill Slope: 0.67; qHTS Max Activity: 105.1
C[C@]12C=CC(=O)C=C1CC[C@@H]1[C@H]3C[C@@H](O)[C@](O)(C(=O)CO)[C@]3(C)C[C@H](O)[C@]12F [NCGC00016037-01]	0.273	–	qHTS Hill Slope: 1.03; log qEC50 [2]: −6.563; qHTS Max Activity: 113.5
CC(=O)O[C@@H]1[C@H]([N+]2(C)CCCCC2)C[C@@H]2[C@@H]3CC[C@@H]4C[C@@H](OC(C)=O)[C@H]([N+]5(C)CCCCC5)C[C@@]4(C)[C@H]3CC[C@]21C [NCGC00015804-01]	> 9	–	–
C#C[C@]1(O)CC[C@H]2[C@H]3CCC4=Cc5oncc5C[C@]4(C)[C@@H]3CC[C@]21C [NCGC00024732-01]	–	4 (inactive, where activity was below 28.6% (3σ for the present assay))	EC50: > 9 µM
CC(=O)OCC(=O)[C@H]1CC[C@H]2[C@@H]3CC[C@H]4C[C@H](O)CC[C@]4(C)[C@H]3C(=O)C[C@]12C [NCGC00016783-01]	> 9	–	–
CC(=O)[C@H]1CC[C@H]2[C@@H]3C=CC4=CC(=O)CC[C@@]4(C)[C@@H]3CC[C@]12C [NCGC00016413-01]	–	4 (inactive, where activity was below 28.6% (3σ for the present assay))	EC50: > 9 µM
C[C@@H]1[C@H](C)CC[C@@]2(C(=O)O)CC[C@]3(C)C(=CC[C@H]4[C@@]5(C)CC[C@@H](O)C(C)(C)[C@@H]5CC[C@@]43C)[C@@H]12 [NCGC00016318-01]	–	4 (inactive, where activity was below 28.6% (3σ for the present assay))	EC50: > 9 µM
CC(=O)O[C@H]1C[C@H]2CC[C@@H]3[C@H]4C[C@@H]([N+]5(C)CCCCC5)[C@@H](OC(C)=O)[C@]4(C)CC[C@@H]3[C@@]2(C)C[C@@H]1[N+]1(C)CCCCC1 [NCGC00024736-01]	> 9	–	–
CC(=O)[C@@H]1CC[C@H]2[C@H]3CC[C@H]4C[C@@H](O)CC[C@]4(C)[C@@H]3CC[C@]12C [NCGC00015853-01]	> 9	–	–
